Common to all, as to assay: ≥ marks a high value that may be exact or a test limit, other limits are often not marked, values filed in µg/mL are converted to µM
Experiment [1] deals with Bacillus cereus.
The subject of experiment [2] is Escherichia coli.
For experiment [3], the system named is Escherichia coli ATCC 25922.
Experiment [4] has as its system Pseudomonas aeruginosa ATCC 27853.
Experiment [5] has as its system Staphylococcus aureus ATCC 25923.
Experiment [6] relates to Staphylococcus epidermidis ATCC 12228.

Each structure is given as a SMILES string. ≈ marks a conversion by molar mass, not a printed value.

Broadly, the MIC is the lowest concentration that inhibits growth of the organism. A low value points to a more susceptible organism. `CC[C@H](C)[C@H](NC(=O)[C@H](CCCCN)NC(=O)[C@@H](NC(=O)[C@@H](NC(=O)[C@H](Cc1ccc(O)cc1)NC(=O)[C@@H](NC(=O)[C@@H](N)CCCCN)C(C)C)C(C)C)C(C)C)C(=O)N[C@@H](C)C(=O)N[C@H](C(=O)N1CCC[C@H]1C(=O)N[C@@H](CS)C(=O)N[C@@H](Cc1ccccc1)C(=O)N1CCC[C@H]1C(=O)N[C@@H](CCCCN)C(=O)N[C@@H](CO)C(=O)N[C@@H](C)C(=O)N[C@@H](CCCN=C(N)N)C(=O)N[C@@H](CO)C(=O)N[C@H](C(=O)N[C@@H](CO)C(=O)O)C(C)C)C(C)C` [KVYVVKIAVPCFPKSARSVS]: the MIC in experiment [1] is at least 118 µM; in experiment [2] it was over 118 µM.

Turning to `CC[C@H](C)[C@H](NC(=O)CNC(=O)[C@H](C)NC(=O)[C@H](Cc1ccc(O)cc1)NC(=O)[C@@H](NC(=O)[C@H](CC(C)C)NC(=O)[C@H](C)N)C(C)C)C(=O)N[C@@H](CCCCN)C(=O)N[C@@H](CCCCN)C(=O)N[C@H](C(=O)N[C@@H](C)C(=O)N[C@@H](Cc1ccccc1)C(=O)N[C@@H](CC(C)C)C(=O)N[C@@H](CCCCN)C(=O)N[C@H](C(=O)N[C@@H](CCC(N)=O)C(=O)N[C@@H](CCCCN)C(=O)N[C@@H](CS)C(=O)N[C@@H](CC(=O)O)C(=O)NCC(=O)O)C(C)C)[C@@H](C)O` [ALVYAGIKKTAFLKVQKCDG], the MIC is at least 119 µM in experiment [1] and over 119 µM in experiment [2].

For the molecule `CSCC[C@H](NC(=O)[C@@H](N)Cc1ccccc1)C(=O)N[C@@H](CCCCN)C(=O)N[C@H](C(=O)N[C@@H](CC(C)C)C(=O)N[C@@H](C)C(=O)N[C@H](C(=O)N[C@@H](Cc1ccccc1)C(=O)NCC(=O)N[C@@H](CO)C(=O)N[C@H](C(=O)N[C@H](C(=O)N[C@H](C(=O)N[C@@H](CO)C(=O)N[C@@H](C)C(=O)N1CCC[C@H]1C(=O)N[C@@H](CCCCN)C(=O)N[C@@H](C)C(=O)N[C@@H](CO)C(=O)N[C@@H](CCCCN)C(=O)O)[C@@H](C)O)C(C)C)C(C)C)C(C)C)C(C)C` [FMKVLAVFGSVVTSAPKASK], the MIC in experiment [1] was at least 124 µM; in experiment [2], over 124 µM.

As for `CC[C@H](C)[C@H](NC(=O)[C@H](Cc1ccccc1)NC(=O)[C@H](CCCCN)NC(=O)[C@H](C)NC(=O)[C@@H](NC(=O)[C@H](CO)NC(=O)[C@H](CCCCN)NC(=O)[C@@H](N)CCSC)[C@@H](C)CC)C(=O)N[C@@H](C)C(=O)N[C@@H](CCCCN)C(=O)N[C@H](C(=O)N[C@H](C(=O)N[C@@H](C)C(=O)N[C@@H](CCCCN)C(=O)N[C@@H](CCC(N)=O)C(=O)NCC(=O)N[C@@H](C)C(=O)N[C@@H](CCCCN)C(=O)N[C@@H](CCC(N)=O)C(=O)NCC(=O)O)C(C)C)[C@@H](C)O` [MKSIAKFIAKTVAKQGAKQG], the MIC is at least 122 µM in experiment [1] and over 122 µM in experiment [2].

In the case of `CC[C@H](C)[C@H](NC(=O)[C@H](C)NC(=O)[C@H](CCCCN)NC(=O)[C@H](CC(C)C)NC(=O)[C@H](C)NC(=O)[C@@H](NC(=O)[C@H](Cc1cnc[nH]1)NC(=O)[C@H](C)NC(=O)[C@@H](NC(=O)[C@@H](NC(=O)[C@H](CCCCN)NC(=O)[C@H](CCCCN)NC(=O)[C@H](C)NC(=O)[C@H](CO)NC(=O)[C@H](CCCCN)NC(=O)[C@H](Cc1ccccc1)NC(=O)[C@@H](NC(=O)[C@H](CCCCN)NC(=O)[C@H](C)NC(=O)[C@H](Cc1ccccc1)NC(=O)[C@H](CO)NC(=O)[C@H](CCCCN)NC(=O)[C@H](Cc1c[nH]c2ccccc12)NC(=O)[C@H](CCCCN)NC(C)=O)[C@@H](C)O)[C@@H](C)O)C(C)C)[C@@H](C)O)C(=O)N[C@@H](CO)C(=O)N[C@@H](CO)C(N)=O` [KWKSFAKTFKSAKKTVAHTALKAISS], the minimum inhibitory concentration (MIC) in experiment [3], in experiment [4], in experiment [5] and in experiment [6] was 125 µM (≈ 363 µg/mL) each time.

These data come from DBAASP.
